Laboratory results taken from US6350766B1, “Dihydropyridine derivative” (Ajinomoto Co., Inc., priority 1997, dated 2002).

Columns and labels:
[1] = molecular target: T1, N-type calcium channel (Rattus norvegicus, UniProt Q02294); assay: Inhibition of N-type calcium channel: calcium currents in cells of maxillary sympathetic ganglions of rats, whole cell voltage clamp; type: cell-based; conditions: rat maxillary sympathetic ganglion cells, depolarization from -60 mV to 0 mV, barium as charge carrier
T1 construct: from tissue; host or cells: freshly dissociated sympathetic ganglion cells of Wistar rats (2 to 4 weeks old)
T1 sequence (Q02294 whole entry): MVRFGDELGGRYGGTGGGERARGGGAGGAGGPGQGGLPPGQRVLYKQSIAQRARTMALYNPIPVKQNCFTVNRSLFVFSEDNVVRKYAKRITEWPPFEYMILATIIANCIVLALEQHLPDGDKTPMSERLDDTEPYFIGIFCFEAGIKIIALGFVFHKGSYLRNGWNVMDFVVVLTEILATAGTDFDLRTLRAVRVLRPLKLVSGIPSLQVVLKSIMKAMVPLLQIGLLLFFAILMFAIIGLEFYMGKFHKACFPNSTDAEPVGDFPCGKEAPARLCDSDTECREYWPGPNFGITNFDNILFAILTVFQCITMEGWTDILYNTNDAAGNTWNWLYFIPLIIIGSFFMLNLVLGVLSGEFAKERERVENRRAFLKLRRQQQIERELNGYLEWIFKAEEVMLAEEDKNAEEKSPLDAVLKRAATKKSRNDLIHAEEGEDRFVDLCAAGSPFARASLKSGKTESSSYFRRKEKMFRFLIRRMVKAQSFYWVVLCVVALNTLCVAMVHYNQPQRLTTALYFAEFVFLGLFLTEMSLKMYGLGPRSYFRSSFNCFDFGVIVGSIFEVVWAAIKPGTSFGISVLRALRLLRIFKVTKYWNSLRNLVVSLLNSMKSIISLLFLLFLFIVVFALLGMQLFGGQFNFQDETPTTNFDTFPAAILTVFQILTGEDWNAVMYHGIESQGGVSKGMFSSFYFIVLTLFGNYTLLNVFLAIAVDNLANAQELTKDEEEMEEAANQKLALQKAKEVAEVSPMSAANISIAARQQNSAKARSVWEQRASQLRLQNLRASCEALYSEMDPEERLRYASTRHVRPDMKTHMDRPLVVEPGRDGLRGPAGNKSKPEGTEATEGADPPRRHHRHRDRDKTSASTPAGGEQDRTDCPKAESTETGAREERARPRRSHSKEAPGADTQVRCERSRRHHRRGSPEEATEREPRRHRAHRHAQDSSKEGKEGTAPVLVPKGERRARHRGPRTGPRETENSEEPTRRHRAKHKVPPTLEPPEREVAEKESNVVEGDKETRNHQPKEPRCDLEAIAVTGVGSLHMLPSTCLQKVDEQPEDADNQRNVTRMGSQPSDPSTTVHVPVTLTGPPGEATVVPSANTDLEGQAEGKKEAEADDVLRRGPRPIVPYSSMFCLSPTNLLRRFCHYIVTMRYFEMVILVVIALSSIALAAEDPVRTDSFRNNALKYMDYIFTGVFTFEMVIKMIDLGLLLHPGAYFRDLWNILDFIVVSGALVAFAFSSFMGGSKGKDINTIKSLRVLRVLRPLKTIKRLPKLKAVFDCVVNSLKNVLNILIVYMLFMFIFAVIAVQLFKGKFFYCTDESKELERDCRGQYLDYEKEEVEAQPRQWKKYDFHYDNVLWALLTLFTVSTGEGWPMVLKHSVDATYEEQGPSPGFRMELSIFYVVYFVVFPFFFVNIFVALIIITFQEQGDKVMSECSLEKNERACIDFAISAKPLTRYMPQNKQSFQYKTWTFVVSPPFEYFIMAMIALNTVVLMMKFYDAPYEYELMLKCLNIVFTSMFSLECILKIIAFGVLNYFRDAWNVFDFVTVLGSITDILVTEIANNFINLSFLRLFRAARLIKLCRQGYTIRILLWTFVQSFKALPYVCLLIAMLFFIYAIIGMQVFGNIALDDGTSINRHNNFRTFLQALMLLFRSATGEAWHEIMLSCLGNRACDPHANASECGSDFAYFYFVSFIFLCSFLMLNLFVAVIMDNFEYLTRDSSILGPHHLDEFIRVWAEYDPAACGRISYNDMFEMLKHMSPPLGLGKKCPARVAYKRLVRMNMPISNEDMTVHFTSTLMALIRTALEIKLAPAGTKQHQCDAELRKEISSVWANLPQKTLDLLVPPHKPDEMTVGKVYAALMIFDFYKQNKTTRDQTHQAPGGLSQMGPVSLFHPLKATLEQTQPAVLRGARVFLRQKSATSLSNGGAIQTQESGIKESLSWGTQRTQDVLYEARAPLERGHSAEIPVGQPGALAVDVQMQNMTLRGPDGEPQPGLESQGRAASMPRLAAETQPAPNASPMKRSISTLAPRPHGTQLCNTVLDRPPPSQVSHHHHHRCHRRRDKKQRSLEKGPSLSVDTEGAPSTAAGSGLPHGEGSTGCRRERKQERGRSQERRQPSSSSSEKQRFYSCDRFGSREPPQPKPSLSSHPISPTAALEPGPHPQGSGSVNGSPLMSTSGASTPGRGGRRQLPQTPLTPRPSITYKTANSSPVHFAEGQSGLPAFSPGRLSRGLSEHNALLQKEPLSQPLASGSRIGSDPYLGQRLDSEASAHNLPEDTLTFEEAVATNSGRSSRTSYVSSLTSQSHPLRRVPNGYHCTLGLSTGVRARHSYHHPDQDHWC
T1 sequence (P54287 whole entry partner): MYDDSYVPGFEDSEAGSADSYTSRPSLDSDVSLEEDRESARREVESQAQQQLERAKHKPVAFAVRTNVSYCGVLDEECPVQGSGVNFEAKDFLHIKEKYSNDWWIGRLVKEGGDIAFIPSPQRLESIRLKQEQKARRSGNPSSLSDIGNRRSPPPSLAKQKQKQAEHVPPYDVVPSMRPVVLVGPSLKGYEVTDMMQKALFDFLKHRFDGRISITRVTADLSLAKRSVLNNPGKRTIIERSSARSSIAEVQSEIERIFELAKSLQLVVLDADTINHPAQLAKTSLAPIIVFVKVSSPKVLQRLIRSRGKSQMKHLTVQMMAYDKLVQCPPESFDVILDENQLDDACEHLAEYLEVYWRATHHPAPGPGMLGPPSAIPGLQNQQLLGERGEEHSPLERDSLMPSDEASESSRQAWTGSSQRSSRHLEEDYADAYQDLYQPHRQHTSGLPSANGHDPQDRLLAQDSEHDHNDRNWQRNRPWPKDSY
T1 sequence (P54290 25-944 partner limits assumed): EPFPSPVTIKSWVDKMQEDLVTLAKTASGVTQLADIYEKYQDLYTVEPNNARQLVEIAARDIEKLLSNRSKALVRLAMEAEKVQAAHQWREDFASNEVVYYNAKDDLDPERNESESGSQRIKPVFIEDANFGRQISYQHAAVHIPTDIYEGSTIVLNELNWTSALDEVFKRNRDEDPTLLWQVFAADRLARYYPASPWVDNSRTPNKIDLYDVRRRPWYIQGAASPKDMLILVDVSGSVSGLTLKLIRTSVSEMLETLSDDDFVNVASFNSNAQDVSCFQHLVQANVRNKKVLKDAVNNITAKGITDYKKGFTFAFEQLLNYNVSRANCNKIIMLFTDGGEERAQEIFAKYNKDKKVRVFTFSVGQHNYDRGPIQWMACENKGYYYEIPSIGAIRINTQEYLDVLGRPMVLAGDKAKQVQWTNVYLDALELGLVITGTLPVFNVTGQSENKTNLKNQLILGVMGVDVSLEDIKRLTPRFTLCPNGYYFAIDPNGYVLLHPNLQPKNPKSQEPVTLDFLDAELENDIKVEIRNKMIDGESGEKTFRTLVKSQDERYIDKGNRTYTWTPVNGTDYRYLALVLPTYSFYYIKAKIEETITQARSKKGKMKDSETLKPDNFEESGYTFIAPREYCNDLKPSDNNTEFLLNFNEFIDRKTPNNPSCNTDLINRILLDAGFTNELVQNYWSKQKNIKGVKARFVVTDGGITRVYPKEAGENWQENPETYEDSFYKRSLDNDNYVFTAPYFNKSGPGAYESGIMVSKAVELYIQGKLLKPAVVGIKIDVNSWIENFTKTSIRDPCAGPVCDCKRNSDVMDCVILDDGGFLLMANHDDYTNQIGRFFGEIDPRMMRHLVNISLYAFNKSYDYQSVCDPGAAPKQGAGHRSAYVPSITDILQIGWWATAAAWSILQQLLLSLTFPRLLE
T1 sequence (P54290 945-1091 partner limits assumed): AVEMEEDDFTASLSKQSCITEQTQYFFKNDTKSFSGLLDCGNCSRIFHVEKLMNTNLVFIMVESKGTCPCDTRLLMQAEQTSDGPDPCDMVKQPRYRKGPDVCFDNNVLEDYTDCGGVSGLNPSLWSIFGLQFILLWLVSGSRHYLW
Description: (Test Examples) Inhibition activity of N-type calcium channel:
1) Preparation of cells of maxillary sympathetic ganglions of rats:
The cervix of each of Wistar rats (2 to 4 weeks old) was opened to expose the maxillary ganglions under anesthesia with pentobarbital. A pair of the ganglions were removed and immediately washed with Ca^2+-free Tyrode solution cooled with ice. Each ganglion was cut into 3 or 4 pieces and kept in the Ca^2+-free Tyrode solution for 15 minutes. Then, these pieces were treated with papain [Washington Biochemicals (lot#35J557); 20 U/ml] and then with a mixture of type-2 collagenase [Washington Biochemicals (CLS2); 5900 U/ml] and dispase [Calbiochem (lot#1312973); 16 mg/ml] for one hour. After enzymatic treatment, the ganglion cells were mechanically isolated by pipetting. The isolated ganglion cells were used for the experiments within 6 hours.
2) Determination of calcium electric current:
The calcium electric current was determined by the whole cell voltage clamp method under the fixed membrane potential. The pipette electrode was pulled from glass tube (inner diameter: 1.5 mm; Narishige) in two stage of a vertical pipette puller (PB-7; Narishige). The ionic current was amplified with a patch amplifier (CEZ-2300; Nihon Kohden Corporation). The noises were cut at 10 kHz (E-3201B, NF Electronic Instrument) and then the ionic current was monitored on a storage oscilloscope (DS-9121, Iwatsu) and, at the same time, recorded with a DAT data recorder (RD-120TE, TEAC). Then it was passed through a 1 kHz filter and recorded in a computer (Compaq DeskPro) with PCLAMP software (Axon Instrument) of 3 kHz. All the experiments were performed at room temperature (25±2° C.). In the measurement of current through the calcium channel, 10 mM barium (composition of the solution: shown below) was used in place of calcium as the charge carrier. The transmission of barium through the calcium channel was better than that of calcium in the sympathetic ganglion cells, and the calcium-dependent channel inactivation was slight when barium was used.
The test compounds were rapidly administered by Y-tube method by Murase et al. [Brain Res. 525, 84 (1990)]. Each compound was dissolved in DMSO, preparing 10 mM mother solution. At the highest drug concentration used, the vehicle (0.1%) had no significant effect on the calcium current.
2) Composition of Normal Tyrode's solution: NaCl; 143, KCl; 4, MgCl2; 0.5; CaCl2; 1.8, glucose; 5.5, NaH2PO4; 0.33, HEPES; 5 (Mm). The pH was adjusted to 7.4 with tris-OH. Composition of Ca-free Tyrode's solution: the same as that of the Normal Tyrode's solution except that it was free of CaCl2.
External solution for the determination of calcium electric current (mM): TEACL; 144, CsCl; 4, BaCl2; […], MgCl2; 0.53, glucose: 5.5, HEPES; 5 (pH 7.4)
Solution in patch electrode: CsCl; 140, MgCl2; 5, CaCl2; 0.28, HEPES; 10 (pH 7.2), EGTA; 5 (pH 7.2).
The electric current was induced by the depolarization for 50 ms, from the holding potential of −60 mV to the test potential of 0 mV. This test potential was the peak in the current/voltage relationship, and the inhibition effect was examined at this point at which the error by the drift of the holding potential was reduced. As Tsein et al. reported, the maxillary ganglion cells were substantially free of L-type component (not more than 5%), and at least 85% thereof comprised the N-type component. […] The inhibition activity of the dihydropyridine derivatives (1 uM) thus determined was 10 to 70%.

[2] = tested on: L-type calcium channel; assay: L-type calcium channel inhibition

inhibition at 0.1 µM [1] [%]	IC50 [2] [nM]	Structure (SMILES)	L-type inhibition 100 nM (%) [2] [%]
24.3	250	COc1cccc(C2C(C(=O)O)=C(C)NC(C)=C2C(=O)OC/C=C/c2ccccc2)c1 (stereo not drawn) [Example 20, mono(3-phenyl-2-propene-1-yl) 4-(3-methoxyphenyl)-2,6-dimethyl-1,4-dihydropyridine-3,5-dicarboxylate]	38
21.3	82	CC1=C(C#N)C(c2cccc(Cl)c2)C(C(=O)OC/C=C/c2ccccc2)=C(C)N1 (stereo not drawn) [Example 9, (3-phenyl-2-propene-1-yl) 4-(3-chlorophenyl) -5-cyano-2,6-dimethyl-1,4-dihydropyridine-3-carboxylate]	56
28.6	50	CC1=C(C(=O)O)C(c2cccc(Cl)c2)C(C(=O)OCC(=O)Nc2ccccc2)=C(C)N1 (stereo not drawn) [Example 14, mono(phenylcarbamoylmethyl) 4-(3-chlorophenyl)-2,6-dimethyl-1,4-dihydropyridine-3,5-dicarboxylate]	70
31.4	32	CC1=C(C(N)=O)C(c2cccc(Cl)c2)C(C(=O)OC/C=C/c2ccccc2)=C(C)N1 (stereo not drawn) [Example 8, (3-phenyl-2-propene-1-yl) 5-carbamoyl-4-(3-chlorophenyl) -2,6-dimethyl-1,4-dihydropyridine-3-carboxylate]	75
47.5	6.3	CC1=C(C(=O)O)C(c2cccc(C#N)c2)C(C(=O)OC/C=C/c2ccccc2)=C(C)N1 (stereo not drawn) [Example 3, mono(3-phenyl-2-propene-1-yl) 4-(3-cyanophenyl)-2,6-dimethyl-1,4-dihydropyridine-3,5-dicarboxylate]	98
